# From paper PMC11784183, “Identification of an antibiotic from an HTS targeting EF-Tu:tRNA interaction: a prospective topical treatment for MRSA skin infections” (Applied and Environmental Microbiology, 2024)
# Details: mouse, in vivo, ip, 10 mg/kg
compound,measurement,value
CC[C@@H]1Cc2cc(O)ccc2C2=C1c1ccc(O)cc1C[C@H]2CC [MGC-10],passage of the blood brain barrier,did not pass the blood brain barrier
